Assay results reported in ChEMBL document CHEMBL5465560, “Selectivity Literature for EUbOPEN Chemogenomic Library” (2024).
Blank lines part the entries; values can stand above or below the molecule they belong to.

What was measured:
[1] = target: Serine/threonine-protein kinase OSR1 (Homo sapiens) (UniProt O95747); assay: Selectivity interaction (Kinase panel (DSF assay)) EUB0001559a OXSR1
[2] = target: cAMP-dependent protein kinase catalytic subunit beta (Homo sapiens) (UniProt P22694); assay: Selectivity interaction (KinomeScan (DiscoverX)) EUB0000655a PRKACB; conditions: at 10 µM
[3] = target: Serine/threonine-protein kinase PAK 3 (Homo sapiens) (UniProt O75914); assay: Selectivity interaction (SelectScreen profiling (Invitrogen)) EUB0000607a PAK3; conditions: at 2 µM
[4] = target: T1, Kinase suppressor of Ras 2 (Homo sapiens) (UniProt Q6VAB6); assay: Selectivity interaction (ActivX KiNativ screen (ex vivo kinase selectivity in human PBMCs)) EUB0001619a KSR2; assay type: cell-based; conditions: PBMC, at 1 µM
T1 sequence (whole entry): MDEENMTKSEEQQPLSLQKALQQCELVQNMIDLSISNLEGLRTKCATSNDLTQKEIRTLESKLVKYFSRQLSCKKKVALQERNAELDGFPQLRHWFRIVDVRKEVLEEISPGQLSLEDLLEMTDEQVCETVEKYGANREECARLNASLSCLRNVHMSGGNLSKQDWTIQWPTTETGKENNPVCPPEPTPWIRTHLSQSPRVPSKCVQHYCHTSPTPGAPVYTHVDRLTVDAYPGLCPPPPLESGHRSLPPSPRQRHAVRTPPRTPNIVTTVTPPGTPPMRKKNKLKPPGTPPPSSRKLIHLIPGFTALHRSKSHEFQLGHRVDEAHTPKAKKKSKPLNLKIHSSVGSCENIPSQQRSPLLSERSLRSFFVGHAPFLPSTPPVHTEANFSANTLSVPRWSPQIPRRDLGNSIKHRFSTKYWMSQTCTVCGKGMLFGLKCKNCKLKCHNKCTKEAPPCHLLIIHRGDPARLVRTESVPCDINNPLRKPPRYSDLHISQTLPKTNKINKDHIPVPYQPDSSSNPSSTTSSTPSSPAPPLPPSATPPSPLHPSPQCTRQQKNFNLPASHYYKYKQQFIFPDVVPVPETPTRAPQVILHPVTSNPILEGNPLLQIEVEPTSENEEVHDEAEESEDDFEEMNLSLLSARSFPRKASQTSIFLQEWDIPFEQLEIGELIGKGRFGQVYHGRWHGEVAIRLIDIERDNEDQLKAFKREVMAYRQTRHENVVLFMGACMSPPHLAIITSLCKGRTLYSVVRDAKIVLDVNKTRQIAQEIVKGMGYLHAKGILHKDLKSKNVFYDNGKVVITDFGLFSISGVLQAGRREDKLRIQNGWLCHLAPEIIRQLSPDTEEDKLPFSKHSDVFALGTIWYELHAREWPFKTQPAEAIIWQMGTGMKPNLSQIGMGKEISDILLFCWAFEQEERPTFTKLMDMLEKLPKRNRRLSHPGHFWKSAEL

[5] = target: T2, Serine/threonine-protein kinase LATS1 (Homo sapiens) (UniProt O95835); assay: Selectivity interaction (ActivX KiNativ screen (kinase selectivity in THP-1 cell lysates)) EUB0000639a LATS1; assay type: subcellular; conditions: lysate, at 1 µM
T2 sequence (whole entry): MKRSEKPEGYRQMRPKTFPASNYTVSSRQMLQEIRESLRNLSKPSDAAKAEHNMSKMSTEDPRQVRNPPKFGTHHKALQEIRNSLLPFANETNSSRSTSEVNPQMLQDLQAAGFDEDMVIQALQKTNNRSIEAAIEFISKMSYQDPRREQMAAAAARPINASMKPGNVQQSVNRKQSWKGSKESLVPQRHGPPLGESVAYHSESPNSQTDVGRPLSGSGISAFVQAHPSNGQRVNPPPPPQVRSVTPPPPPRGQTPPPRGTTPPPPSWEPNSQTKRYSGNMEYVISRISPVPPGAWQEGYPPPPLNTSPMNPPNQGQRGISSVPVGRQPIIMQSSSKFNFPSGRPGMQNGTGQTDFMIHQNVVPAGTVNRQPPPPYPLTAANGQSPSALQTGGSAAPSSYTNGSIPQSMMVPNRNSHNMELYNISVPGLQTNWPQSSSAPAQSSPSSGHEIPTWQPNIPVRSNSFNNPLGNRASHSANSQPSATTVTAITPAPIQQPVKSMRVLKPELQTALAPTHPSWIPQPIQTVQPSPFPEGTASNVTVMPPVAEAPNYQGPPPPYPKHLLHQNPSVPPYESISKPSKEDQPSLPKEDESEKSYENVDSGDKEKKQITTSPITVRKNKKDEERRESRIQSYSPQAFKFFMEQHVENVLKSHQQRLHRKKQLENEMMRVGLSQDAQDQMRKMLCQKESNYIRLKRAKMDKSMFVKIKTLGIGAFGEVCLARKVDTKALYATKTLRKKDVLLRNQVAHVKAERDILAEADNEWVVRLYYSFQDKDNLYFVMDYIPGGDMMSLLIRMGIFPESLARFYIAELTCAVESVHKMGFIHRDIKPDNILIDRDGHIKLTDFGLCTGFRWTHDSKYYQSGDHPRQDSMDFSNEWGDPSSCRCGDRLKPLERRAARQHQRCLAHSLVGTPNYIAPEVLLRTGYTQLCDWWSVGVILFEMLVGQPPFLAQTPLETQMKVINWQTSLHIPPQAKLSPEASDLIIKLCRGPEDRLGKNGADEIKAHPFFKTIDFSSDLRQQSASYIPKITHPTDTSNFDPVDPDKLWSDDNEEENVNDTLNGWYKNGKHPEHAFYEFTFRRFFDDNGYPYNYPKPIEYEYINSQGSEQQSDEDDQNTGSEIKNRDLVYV

[6] = target: Non-receptor tyrosine-protein kinase TYK2 (Homo sapiens, UniProt P29597); assay: Selectivity interaction (KinomeScan (DiscoverX)) EUB0000229b TYK2; conditions: at 10 µM
[7] = target: Cyclin-dependent kinase 19 (Homo sapiens) (UniProt Q9BWU1); assay: Selectivity interaction (KinomeScan (DiscoverX)) EUB0001049a CDK19; conditions: at 1 µM
Cyclin-dependent kinase 19 (Homo sapiens), sequence (Q9BWU1 whole entry): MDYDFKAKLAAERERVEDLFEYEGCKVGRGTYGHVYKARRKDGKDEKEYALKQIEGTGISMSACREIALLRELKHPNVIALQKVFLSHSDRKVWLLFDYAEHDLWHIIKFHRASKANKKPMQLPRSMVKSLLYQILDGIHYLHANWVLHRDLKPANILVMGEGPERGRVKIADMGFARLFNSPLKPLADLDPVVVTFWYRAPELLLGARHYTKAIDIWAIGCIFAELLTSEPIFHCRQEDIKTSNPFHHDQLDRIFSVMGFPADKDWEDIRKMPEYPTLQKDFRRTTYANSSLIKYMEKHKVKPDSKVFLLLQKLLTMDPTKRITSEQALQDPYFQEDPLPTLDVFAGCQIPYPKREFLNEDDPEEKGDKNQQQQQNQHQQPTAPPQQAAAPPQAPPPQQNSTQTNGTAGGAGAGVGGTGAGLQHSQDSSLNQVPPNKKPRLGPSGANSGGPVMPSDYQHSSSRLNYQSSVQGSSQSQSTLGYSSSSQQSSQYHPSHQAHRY

Non-receptor tyrosine-protein kinase TYK2, sequence (P29597 whole entry): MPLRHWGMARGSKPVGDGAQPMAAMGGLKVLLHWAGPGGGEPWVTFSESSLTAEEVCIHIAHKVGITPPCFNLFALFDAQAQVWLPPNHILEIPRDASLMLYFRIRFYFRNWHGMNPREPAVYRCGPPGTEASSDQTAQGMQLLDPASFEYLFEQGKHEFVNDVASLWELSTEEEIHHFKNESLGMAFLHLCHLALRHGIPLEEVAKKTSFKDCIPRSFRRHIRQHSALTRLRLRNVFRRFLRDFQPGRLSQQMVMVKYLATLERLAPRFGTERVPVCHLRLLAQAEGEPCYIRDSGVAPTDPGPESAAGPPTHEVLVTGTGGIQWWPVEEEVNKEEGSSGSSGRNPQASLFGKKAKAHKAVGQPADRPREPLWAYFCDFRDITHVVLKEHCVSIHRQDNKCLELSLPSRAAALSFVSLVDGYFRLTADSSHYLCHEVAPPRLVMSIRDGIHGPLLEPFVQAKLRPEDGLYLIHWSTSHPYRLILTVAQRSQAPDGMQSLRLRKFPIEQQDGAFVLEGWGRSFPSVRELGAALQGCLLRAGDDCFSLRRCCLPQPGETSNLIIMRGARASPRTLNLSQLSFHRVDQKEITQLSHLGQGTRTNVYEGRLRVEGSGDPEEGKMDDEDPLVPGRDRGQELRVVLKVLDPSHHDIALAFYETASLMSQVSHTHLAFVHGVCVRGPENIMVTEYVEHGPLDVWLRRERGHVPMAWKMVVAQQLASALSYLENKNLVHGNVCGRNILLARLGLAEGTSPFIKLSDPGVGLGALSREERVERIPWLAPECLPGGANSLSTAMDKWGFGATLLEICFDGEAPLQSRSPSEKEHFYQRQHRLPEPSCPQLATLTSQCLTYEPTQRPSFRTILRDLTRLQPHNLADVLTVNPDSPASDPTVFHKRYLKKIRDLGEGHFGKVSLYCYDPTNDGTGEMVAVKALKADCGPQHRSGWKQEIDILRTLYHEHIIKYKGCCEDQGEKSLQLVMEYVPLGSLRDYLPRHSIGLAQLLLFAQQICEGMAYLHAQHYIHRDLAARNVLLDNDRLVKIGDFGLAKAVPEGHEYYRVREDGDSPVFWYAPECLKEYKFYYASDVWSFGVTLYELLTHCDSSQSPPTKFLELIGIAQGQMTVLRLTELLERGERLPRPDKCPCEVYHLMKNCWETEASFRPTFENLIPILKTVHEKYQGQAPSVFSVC
Serine/threonine-protein kinase PAK 3 (Homo sapiens), sequence (O75914 whole entry, looked up): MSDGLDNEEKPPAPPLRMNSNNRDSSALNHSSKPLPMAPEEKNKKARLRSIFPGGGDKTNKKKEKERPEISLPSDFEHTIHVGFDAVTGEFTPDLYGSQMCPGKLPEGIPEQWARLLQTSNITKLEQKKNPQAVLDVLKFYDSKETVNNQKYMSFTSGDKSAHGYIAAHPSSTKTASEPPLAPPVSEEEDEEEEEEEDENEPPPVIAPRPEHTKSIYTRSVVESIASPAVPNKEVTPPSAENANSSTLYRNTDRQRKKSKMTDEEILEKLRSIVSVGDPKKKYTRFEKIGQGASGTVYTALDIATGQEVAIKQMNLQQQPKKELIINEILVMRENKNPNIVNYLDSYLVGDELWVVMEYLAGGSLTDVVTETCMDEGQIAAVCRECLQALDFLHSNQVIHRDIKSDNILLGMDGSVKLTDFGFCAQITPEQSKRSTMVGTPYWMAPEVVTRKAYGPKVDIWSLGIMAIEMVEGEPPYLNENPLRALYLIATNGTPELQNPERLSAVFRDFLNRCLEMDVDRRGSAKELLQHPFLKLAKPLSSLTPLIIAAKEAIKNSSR
Serine/threonine-protein kinase OSR1 (Homo sapiens), sequence (O95747 2-527 limits assumed): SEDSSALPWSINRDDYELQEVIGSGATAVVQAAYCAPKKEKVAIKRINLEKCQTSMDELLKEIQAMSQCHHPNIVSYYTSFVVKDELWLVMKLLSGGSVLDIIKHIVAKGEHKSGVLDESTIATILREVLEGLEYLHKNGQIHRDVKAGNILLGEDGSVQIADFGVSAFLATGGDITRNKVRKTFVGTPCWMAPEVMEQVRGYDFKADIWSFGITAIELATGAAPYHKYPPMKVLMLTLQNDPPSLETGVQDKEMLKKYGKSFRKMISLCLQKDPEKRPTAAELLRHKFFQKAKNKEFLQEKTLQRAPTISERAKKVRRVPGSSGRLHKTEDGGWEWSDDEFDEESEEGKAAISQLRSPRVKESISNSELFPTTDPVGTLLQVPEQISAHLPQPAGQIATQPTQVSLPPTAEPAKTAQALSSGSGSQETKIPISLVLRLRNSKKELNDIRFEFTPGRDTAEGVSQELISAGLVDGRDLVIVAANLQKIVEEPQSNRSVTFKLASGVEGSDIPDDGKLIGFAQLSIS

dTM [1]: 0.3 K
SMILES: CN(C(=O)c1cnn2cccnc12)c1cc2c(cc1N1CCOCC1)C(=O)N(C[C@@H](F)C(C)(C)O)C2

SMILES: CN(C)CCOc1ccc(-c2nc(-c3ccncc3)c(-c3ccc4c(c3)CC/C4=N\O)[nH]2)cc1
% of control [2]: 74%

SMILES: CNC(=O)Nc1ccc(-c2nc(N3CC4CCC(C3)O4)c3cnn(C4CCC5(CC4)OCCO5)c3n2)cc1
% of inhibition [3]: 1%

SMILES: N#Cc1cccc(-c2c[nH]c3ncnc(N4CCOCC4)c23)c1
% of inhibition [4]: 12%

% of inhibition [5]: -107%
SMILES: CC[C@@H]1[C@H](F)C(=O)N[C@@H]1COc1nccc2cc(C(N)=O)c(OC)cc12 [ZIMLOVISERTIB]

SMILES: COc1cc(N(C)c2ccnc3ccc(C(F)(F)F)cc23)cc(OC)c1OC
% binding [6]: 99%

SMILES: COc1cc(Nc2nc(C)cc(-c3cnn4nc(OC)ccc34)n2)cc(C(F)(F)F)c1
% of control [7]: 91%
